Data as given in patent US20060111410A1, “Microbicide substances” (priority 2002, published 2006).

Columns and labels:
[1] = system: Pseudomonas fluorescens; assay: Synergism BIT/TMAD, amounts required to suppress growth; type: cell-based; settings: compound applied on its own
Description: (§1) The observed synergism of the mixtures according to the invention can be determined by the following mathematical approach (cf. F. C. Kull, P. C. Elisman, H. D. Sylwestrowicz and P. K. Mayer, Appl. Microbiol. 9, 538 (1961): [formula] where • Qa=the amount of component A in the active compound mixture required to achieve the desired effect, i.e. no microbial growth, • QA=the amount of component A which, applied on its own, suppresses the growth of the microorganisms, • Qb=the amount of component B in the active compound mixture which supresses the growth of the microorganisms, and • QB=the amount of component B which, applied on its own, suppresses the growth of the microorganisms.
(§2) A synergistic index of SI<1 indicates a synergistic effect for the active compound mixture.
Test germ: Pseudomonas fluorescens
(§3) The numbers in brackets indicate the weight ratio of the active compounds in the mixtures. [formula] A=BIT/B=TMAD

[2] = system: Pseudomonas aeruginosa; assay: as above; type: cell-based; settings: compound applied on its own
Description: as §1, §2
Test germ: Pseudomonas aeruginosa
as §3

SMILES	Amounts of the pure active compounds required to suppress growth [1] [ppm]	Amounts of the pure active compounds required to suppress growth [2] [ppm]
O=c1[nH]sc2ccccc12 [BIT, 1,2-benzisothiazolinone]	20	20
O=C1N(CO)C2C(N1CO)N(CO)C(=O)N2CO (stereo not shown) [TMAD, tetramethylolacetylenediurea]	500	500
